Key:
lipoamide = compound: NC(=O)CCCCC1CCSS1 [lipoamide]; test: thermal stability z-score vs DMSO; higher = more thermally stabilized by treatment; details: HeLa, lipoamide concentration 100 µM
Method: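 Cellular thermal proteome profiling in HeLa cells. Cells were treated with 100 µM lipoamide for 1 h, with or without 1 mM arsenate for a further 1 h, then heated to ten temperatures (37-66.3 °C), and soluble protein was quantified by TMT mass spectrometry relative to 0.1% DMSO controls. The thermal stability score (sum of log2 fold changes minus the abundance score) was transformed to a z-score; mean of n = 3 experiments.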

potassium arsenate = compound: O=[As]([O-])(O)O.[K+] [potassium arsenate]; test: as above; details: HeLa; arsenate concentration 1 mM
Method: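 Cellular thermal proteome profiling in HeLa cells treated with 1 mM arsenate for 1 h (DMSO pretreatment), heated to ten temperatures (37-66.3 °C). Soluble protein was quantified by TMT mass spectrometry relative to DMSO controls; the thermal stability score was transformed to a z-score; mean of n = 3 experiments.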

[1] = arsenate co-treatment: 1 mM arsenate 1 h
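Further: each temperature applied for 3 min, abundance score taken as mean log2 fold change at the two lowest temperatures, z-score obtained by mean subtraction and division by SD.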

Chain of UniProt Q9Y287 (Q9Y287 whole entry, looked up): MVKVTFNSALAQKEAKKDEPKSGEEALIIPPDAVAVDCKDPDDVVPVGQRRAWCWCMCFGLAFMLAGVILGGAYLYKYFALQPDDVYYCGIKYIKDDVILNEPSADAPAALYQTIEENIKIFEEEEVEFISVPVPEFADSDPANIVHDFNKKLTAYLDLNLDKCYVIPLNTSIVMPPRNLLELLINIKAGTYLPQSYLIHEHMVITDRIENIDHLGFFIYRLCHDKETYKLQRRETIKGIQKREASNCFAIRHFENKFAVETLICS
Chain of UniProt Q6P1Q9 (Q6P1Q9 whole entry): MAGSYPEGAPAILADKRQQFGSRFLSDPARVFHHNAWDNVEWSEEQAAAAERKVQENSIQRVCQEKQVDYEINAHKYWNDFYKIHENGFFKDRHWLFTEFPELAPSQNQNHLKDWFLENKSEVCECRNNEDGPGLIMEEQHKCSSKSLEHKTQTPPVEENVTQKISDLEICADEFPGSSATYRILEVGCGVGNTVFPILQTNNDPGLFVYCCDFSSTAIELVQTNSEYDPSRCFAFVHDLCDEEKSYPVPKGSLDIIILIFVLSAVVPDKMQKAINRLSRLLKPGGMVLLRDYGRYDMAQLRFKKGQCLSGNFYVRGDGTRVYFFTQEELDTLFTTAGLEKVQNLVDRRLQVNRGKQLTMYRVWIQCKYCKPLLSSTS
Chain of UniProt Q16774 (Q16774 whole entry): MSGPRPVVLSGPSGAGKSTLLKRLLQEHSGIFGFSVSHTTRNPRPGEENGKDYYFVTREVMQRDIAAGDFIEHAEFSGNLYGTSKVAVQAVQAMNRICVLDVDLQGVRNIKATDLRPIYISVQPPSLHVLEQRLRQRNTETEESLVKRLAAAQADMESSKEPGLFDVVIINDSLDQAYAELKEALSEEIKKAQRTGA
Chain of UniProt Q9UJV9 (Q9UJV9 whole entry): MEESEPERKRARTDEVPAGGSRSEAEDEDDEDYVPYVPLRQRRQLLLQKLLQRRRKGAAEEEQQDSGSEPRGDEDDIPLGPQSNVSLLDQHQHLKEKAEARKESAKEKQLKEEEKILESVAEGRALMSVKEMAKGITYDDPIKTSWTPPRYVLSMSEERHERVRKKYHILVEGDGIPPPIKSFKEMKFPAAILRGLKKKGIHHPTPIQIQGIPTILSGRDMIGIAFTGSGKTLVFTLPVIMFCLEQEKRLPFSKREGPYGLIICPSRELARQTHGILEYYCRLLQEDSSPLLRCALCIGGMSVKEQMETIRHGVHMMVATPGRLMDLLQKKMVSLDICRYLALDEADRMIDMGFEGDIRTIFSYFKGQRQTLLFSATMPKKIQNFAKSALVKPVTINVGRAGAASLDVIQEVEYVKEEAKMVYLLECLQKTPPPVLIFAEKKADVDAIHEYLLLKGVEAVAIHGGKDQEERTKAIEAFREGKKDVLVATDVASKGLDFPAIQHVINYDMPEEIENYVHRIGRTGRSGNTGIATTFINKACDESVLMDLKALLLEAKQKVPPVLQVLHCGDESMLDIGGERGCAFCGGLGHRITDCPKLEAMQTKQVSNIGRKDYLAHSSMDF
Chain of UniProt Q6NUK1 (Q6NUK1 whole entry): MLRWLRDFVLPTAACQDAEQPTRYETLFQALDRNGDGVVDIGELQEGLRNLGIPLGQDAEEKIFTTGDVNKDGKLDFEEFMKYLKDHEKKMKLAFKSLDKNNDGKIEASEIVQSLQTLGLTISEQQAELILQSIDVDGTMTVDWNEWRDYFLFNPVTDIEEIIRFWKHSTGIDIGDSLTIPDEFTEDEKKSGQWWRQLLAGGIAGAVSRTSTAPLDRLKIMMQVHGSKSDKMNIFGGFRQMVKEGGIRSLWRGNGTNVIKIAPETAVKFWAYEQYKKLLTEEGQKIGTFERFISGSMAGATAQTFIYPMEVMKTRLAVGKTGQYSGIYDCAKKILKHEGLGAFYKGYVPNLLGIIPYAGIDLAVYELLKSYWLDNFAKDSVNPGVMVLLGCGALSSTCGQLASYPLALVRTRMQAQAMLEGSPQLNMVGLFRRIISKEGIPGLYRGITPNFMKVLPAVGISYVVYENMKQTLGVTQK
Chain of UniProt Q96AZ6 (Q96AZ6 whole entry): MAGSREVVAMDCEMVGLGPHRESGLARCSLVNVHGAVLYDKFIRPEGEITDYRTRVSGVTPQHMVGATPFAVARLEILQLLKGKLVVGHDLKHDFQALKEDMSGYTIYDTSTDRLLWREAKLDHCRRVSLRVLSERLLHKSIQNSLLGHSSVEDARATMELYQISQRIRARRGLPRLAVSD
Chain of UniProt Q8N392 (Q8N392 whole entry): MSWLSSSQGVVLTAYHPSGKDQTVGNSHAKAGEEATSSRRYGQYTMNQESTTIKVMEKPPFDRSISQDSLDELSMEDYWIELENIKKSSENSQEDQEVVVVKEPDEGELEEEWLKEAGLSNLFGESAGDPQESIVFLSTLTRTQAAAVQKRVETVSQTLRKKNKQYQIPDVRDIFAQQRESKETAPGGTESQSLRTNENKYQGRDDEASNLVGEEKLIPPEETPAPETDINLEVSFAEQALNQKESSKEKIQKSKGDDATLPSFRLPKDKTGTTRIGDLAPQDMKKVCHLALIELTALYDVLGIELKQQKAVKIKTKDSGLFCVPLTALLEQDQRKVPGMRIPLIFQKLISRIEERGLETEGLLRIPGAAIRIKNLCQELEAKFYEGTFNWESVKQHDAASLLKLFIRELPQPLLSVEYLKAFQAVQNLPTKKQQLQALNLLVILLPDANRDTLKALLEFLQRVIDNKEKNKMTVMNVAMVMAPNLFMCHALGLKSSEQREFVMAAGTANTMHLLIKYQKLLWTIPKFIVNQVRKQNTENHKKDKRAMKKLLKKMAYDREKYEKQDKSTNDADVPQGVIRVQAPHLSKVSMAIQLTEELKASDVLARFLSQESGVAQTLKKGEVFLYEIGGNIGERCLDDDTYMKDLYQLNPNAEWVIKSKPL
Chain of UniProt P54259 (P54259 whole entry): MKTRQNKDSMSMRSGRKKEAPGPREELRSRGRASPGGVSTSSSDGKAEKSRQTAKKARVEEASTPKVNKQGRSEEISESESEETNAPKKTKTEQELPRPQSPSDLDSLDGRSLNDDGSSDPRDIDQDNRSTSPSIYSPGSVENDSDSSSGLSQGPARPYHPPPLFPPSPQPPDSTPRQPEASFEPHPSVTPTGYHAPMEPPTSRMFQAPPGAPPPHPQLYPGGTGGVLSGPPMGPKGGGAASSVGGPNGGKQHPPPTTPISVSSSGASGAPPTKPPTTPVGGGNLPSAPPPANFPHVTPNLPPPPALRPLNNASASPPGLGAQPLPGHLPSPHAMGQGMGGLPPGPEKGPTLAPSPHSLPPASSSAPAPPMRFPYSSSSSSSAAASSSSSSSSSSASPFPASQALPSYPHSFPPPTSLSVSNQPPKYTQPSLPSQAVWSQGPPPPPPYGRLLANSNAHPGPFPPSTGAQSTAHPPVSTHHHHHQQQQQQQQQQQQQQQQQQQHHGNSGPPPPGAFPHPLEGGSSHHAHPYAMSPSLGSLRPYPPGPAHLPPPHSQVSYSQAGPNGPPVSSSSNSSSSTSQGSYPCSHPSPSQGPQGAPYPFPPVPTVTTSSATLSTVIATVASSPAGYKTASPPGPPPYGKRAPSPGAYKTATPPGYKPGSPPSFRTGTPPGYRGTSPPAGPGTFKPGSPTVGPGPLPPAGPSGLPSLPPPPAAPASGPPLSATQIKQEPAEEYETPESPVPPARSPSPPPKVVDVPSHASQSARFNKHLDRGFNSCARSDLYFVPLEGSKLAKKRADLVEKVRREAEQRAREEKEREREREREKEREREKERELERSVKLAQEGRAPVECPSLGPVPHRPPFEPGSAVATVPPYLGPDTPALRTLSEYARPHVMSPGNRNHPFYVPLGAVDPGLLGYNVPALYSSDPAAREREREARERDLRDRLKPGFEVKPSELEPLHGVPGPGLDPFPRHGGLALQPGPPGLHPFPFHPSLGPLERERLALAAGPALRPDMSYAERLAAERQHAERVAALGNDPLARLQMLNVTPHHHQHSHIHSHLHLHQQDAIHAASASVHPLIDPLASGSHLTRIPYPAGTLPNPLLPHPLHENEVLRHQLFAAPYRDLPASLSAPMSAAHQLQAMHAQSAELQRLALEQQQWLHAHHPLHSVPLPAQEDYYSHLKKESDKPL
Chain of UniProt O94855 (O94855 whole entry): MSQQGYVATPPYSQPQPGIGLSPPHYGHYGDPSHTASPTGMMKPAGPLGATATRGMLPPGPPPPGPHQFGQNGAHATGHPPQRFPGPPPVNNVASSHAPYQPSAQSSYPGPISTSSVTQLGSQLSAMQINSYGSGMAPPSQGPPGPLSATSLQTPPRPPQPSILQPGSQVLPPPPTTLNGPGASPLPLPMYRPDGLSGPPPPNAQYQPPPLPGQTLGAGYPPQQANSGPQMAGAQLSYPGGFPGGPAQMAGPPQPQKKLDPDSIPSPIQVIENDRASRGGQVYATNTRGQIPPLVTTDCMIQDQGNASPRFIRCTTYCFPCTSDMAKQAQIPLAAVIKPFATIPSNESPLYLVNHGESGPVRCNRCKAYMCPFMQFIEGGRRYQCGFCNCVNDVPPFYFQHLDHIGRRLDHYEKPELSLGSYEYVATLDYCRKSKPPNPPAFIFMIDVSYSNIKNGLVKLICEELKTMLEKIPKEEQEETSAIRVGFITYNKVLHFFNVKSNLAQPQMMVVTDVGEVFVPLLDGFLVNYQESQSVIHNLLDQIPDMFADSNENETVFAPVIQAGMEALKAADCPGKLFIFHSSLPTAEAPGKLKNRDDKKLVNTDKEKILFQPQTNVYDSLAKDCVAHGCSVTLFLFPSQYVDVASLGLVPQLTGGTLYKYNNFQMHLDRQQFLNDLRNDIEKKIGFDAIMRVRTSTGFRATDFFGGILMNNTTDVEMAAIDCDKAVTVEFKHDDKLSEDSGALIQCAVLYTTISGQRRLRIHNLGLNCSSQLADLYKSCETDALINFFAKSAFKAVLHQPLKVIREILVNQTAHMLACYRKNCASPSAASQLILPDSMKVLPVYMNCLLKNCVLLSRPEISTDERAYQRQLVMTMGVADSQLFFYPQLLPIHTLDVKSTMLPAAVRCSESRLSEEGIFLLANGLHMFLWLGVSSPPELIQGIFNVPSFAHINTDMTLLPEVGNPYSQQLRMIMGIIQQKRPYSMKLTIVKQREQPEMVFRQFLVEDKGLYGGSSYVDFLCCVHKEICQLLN

Target	thermal stability z-score (lipoamide; [1])	thermal stability z-score (lipoamide; arsenate co-treatment: none)	thermal stability z-score (potassium arsenate)
BRAF (UniProt P15056)	-0.207	0.176	0.328
MKLN1 (UniProt Q9UL63)	-0.128	-0.114	-0.403
WDR77 (UniProt Q9BQA1)	-0.484	0.78	-0.717
HSPH1 (UniProt Q92598)	-0.0648	-0.0435	0.196
RPL5 (UniProt P46777)	0.172	0.132	-0.481
ITM2B (UniProt Q9Y287)	0.215	-0.0896	-0.251
ARHGAP18 (UniProt Q8N392)	1.13	1.59	1.21
UBA6	-0.423	-0.209	0.0818
CDK9 (UniProt P50750)	-0.226	-0.263	0.544
SEC24D (UniProt O94855)	0.087	-0.238	-0.578
ATN1 (UniProt P54259)	0.566	0.784	0.759
SNW1 (UniProt Q13573)	-0.497	-0.726	-0.395
SIPA1 (UniProt Q96FS4)	-0.295	0.0519	0.319
TLK1 (UniProt Q9UKI8)	0.193	-0.983	0.956
ACBD6 (UniProt Q9BR61)	-1.02	-0.756	-0.675
SLC25A24 (UniProt Q6NUK1)	-0.0911	-0.127	0.205
HARS (UniProt P12081)	-0.0978	-0.228	1.38
UPF1 (UniProt Q92900)	0.222	-0.246	0.172
METTL2B (UniProt Q6P1Q9)	-0.019	-0.11	-0.0568
ARPC5 (UniProt O15511)	0.9	0.484	-0.246
BET1 (UniProt O15155)	0.642	1.03	1.11
FRRS1 (UniProt Q6ZNA5)	-0.316	-0.157	0.586
DDX24 (UniProt Q9GZR7)	1.1	0.327	-0.522
ST13 (UniProt P50502)	0.433	0.404	0.962
NNT (UniProt Q13423)	0.176	0.166	0.0461
EXOSC9 (UniProt Q06265)	0.0277	-1.24	-1.59
IWS1 (UniProt Q96ST2)	-0.094	0.636	0.949
PMPCB (UniProt O75439)	0.254	0.207	0.353

Target	thermal stability z-score (lipoamide; [1])	thermal stability z-score (lipoamide; arsenate co-treatment: none)	thermal stability z-score (potassium arsenate)
DDX41 (UniProt Q9UJV9)	-0.196	-0.0709	-0.204
TXLNA (UniProt P40222)	0.459	0.0728	2.4
RWDD4 (UniProt Q6NW29)	-0.526	-0.0479	0.261
NQO2 (UniProt P16083)	1.23	0.788	0.389
MBOAT7 (UniProt Q96N66)	-0.956	-0.883	-0.732
POP1 (UniProt Q99575)	-0.557	-0.523	-0.401
UFSP2 (UniProt Q9NUQ7)	-1.19	-0.381	0.0966
TRAPPC11 (UniProt Q7Z392)	-0.549	-1.8	-0.537
CHAF1A (UniProt Q13111)	0.0368	0.138	-0.0415
GUK1 (UniProt Q16774)	0.321	0.714	0.29
FAM32A (UniProt Q9Y421)	0.832	0.827	0.375
CMC2 (UniProt Q9NRP2)	0.275	0.104	0.218
SORD (UniProt Q00796)	0.301	-0.192	-0.608
BNIP3 (UniProt Q12983)	0.679	0.193	2.44
PSMA4 (UniProt P25789)	1.29	0.788	0.411
LATS1 (UniProt O95835)	-0.183	-0.189	-0.0262
ECHDC1 (UniProt Q9NTX5)	0.928	0.478	0.479
ALG3 (UniProt Q92685)	-0.0793	-0.236	0.141
H2AFX (UniProt P16104)	-0.033	-0.0884	-0.415
SCAMP1 (UniProt O15126)	0.621	0.765	0.0619
RAB5A (UniProt P20339)	-0.751	-0.744	-0.695
KIAA0586 (UniProt Q9BVV6)	0.234	0.264	-0.133
GOPC (UniProt Q9HD26)	-0.587	0.0054	0.591
MCM7 (UniProt P33993)	-0.43	-0.294	-0.228
RHBDF2 (UniProt Q6PJF5)	-0.0324	-0.158	0.166
ISG20 (UniProt Q96AZ6)	0.189	0.668	0.863
MANBAL (UniProt Q9NQG1)	1.06	1.59	0.0493
